# Article PMC9396645 (Frontiers in Chemistry, 2022)
# How the values were obtained:
# [1] = Determination of plasma half-life in athymic nude mice; assay type: in vivo, mouse; details: athymic nude mice (n = 3), i.v. 4–6 MBq, biexponential fit, weighted overall half-life
# Procedure: The radioligands ^68Ga-CA027 and ^68Ga-CA028 (4–6 MBq) were injected into athymic nude mice (n = 3) via the lateral tail vein. Blood (25–50 μL) was collected 2, 5, 15, 30, 45, 60, 90, and 120 min post injection via either the tail or saphenous vein, and the activity of the blood samples was determined in a γ-counter. Both procedures furnished consistent and reproducible results. The percentage of the injected dose per gram of tissue (%ID/g) was calculated, and the resulting values were plotted as a function of time. A biexponential decay curve was used as a fit function, accounting for a short blood half-life (a-phase) during the initial phase directly after injection and a longer blood half-life during the terminal phase (b-phase). The data analysis program Prism 7™ was used to determine both half-lives, t1/2-a and t1/2-b, as well as their relative contribution (in %) to the overall half-life (t1/2). Subsequently, both half-lives were weighed according to their relative contribution to the overall blood half-life t1/2. At the time of tracer injection (t = 0), it was assumed that %ID/g = 50. The injected dose at t = 0 equals 100%, divided by the total mass of blood (approximately 2 g in the case of 6‒8 weeks old mice) gives %ID/g t=0 = 50.
# [2] = molecular target: T1, PSMA (Homo sapiens, UniProt Q04609); test: Competitive cell binding assay on C4-2 cells vs ^68Ga-PSMA-10; details: non-labeled compounds, radioligand ^68Ga-PSMA-10 0.75 nM, 37°C 45 min, mean ± SD (n = 3)
# T1 construct: host or cells: C4-2 cells (subline of LNCaP)
# Procedure: The competition binding assay was performed using the cell line C4-2 (ATCC® CRL-3314™; American Type Culture Collection). This is a subline of the PSMA-positive cell line LNCaP. The cells were cultivated in RPMI 1640 medium (PAN-Biotech), supplemented with 10% fetal bovine serum and 2 mM L-glutamine (PAN-Biotech) at 37°C and 5% CO2 in a humidified atmosphere.
# A 96-well MultiScreenHTS-DV filter plate (Merck Millipore) was incubated at room temperature with 100 µL of a 1% bovine serum albumin (BSA) solution in PBS (phosphate-buffered saline) per well for 30 min. After removal of PBS/BSA solution, 1 × 10^5 C4-2 cells in 50 µL of Opti-MEM medium (Gibco, Life Technologies) were seeded into each well. […] All non-labeled compounds were dissolved in Opti-MEM and added as competing ligands at several concentrations: 0, 0.5, 1, 2.5, 5, 10, 25, 50, 100, 500, 1,000, and 5,000 nM. After incubation at 37°C for 45 min, the cells were washed twice with PBS at 4°C. The radioactivity in the supernatant and that accumulated by the cells was determined with a γ-counter (Packard Cobra Auto-gamma). Using Graph Pad Prism 5.01 software, a nonlinear regression algorithm was calculated to obtain the 50% inhibitory concentration (IC50). These experiments were performed in quadruplicate.
# [3] = tested on: C4-2 cells; test: Internalization efficiency / specific cell uptake in C4-2 cells; assay type: cell-based, human; details: for Specific cell surface / Specific lysate (internalization): ^68Ga-labeled compounds 30 nM, 45 min, 37°C, specificity by 2-PMPA 500 μM, mean ± SD (n = 3)
# Procedure: The specific internalization ratio was determinated in 24-well plates. The plates were previously coated with 0.1% poly-L-lysine in PBS for 20 min and washed with PBS once. C4-2 cells (10^5 cells per analysis) were added to each well and equilibrated overnight. The cells were incubated for 45 min with 250 µL of a 30 nM solution of the ^68Ga-labeled compounds either in a water bath at 37°C or on ice. The PSMA-receptor-blocking agent 2-(phosphonomethyl)pentanedioic acid (2-PMPA; 500 μM; Axxora) was used to verify the specificity of the cellular uptake of the novel compounds. The cells were washed thrice (using 1 ml of ice-cold PBS), followed by an incubation with 0.5 ml of a glycine solution (50 mM in HCl at a pH of 2.8) for 5 min, washed once with 1 ml of ice-cold PBS, and finally lysed with 0.5 ml of 0.3 M NaOH. The lysate was collected, and the radioactivity was measured in a gamma-counter. Triplicate measurements were performed for all experiments.
# [4] = Serum stability (radio-HPLC and radio-ITLC); assay type: in vitro ADME; details: ^177Lu-labeled; for release of ^177Lu in human serum: radio-ITLC
# Procedure: After radiolabeling of the compounds, serum stability was examined by HPLC and ITLC (instant thin-layer chromatography). 50 µL (20 MBq) of the ^177Lu-labeled ligands was added to 200 µL human serum (Sigma-Aldrich) and incubated at 37°C. At different time points (0, 2, 24, 48, and 72 h) 0.5 µL was applied onto iTLC-SG-glass microfiber chromatography paper strips (5 × 0.5 cm; Agilent Technologies) at a distance of 1 cm from the bottom. The strip was placed upright into a vial containing 120 µL of sodium citrate buffer (0.5 M, pH = 5.0). The buffer front was allowed to rise to the top. Subsequently, each strip was cut in eight equally sized pieces that were subsequently measured in a gamma-counter. For HPLC analysis, an equal volume of ACN was added to the samples; under these conditions, the serum proteins precipitated. The samples were centrifuged for 10 min at 12,000 × g. Following the separation of the pellet and the supernatant, their relative activity (%) was determined. An aliquot of the supernatant was analyzed by radio-HPLC (0–100% ACN in 5 min, Monolith column, Merck), with a flow rate of 2 mL/min.
# [5] = tested on: C4-2 tumor-bearing mice; test: In vivo metabolite analysis by radio-HPLC of tissue extracts; parameters: species or system mouse; details: extracts from kidney, blood, liver and tumor of C4-2 tumor-bearing mice, 10 MBq, 0.2 nmol i.v.
# Procedure: The metabolization of the radiolabeled tracers in vivo was studied by radio-HPLC analysis. Male nude C4-2 tumor-bearing mice (n = 3) were injected with ^177Lu-CA028 or ^177Lu-PSMA-617 (10 MBq, 0.2 nmol in approximately 100 µL of 0.9% saline) via the tail vein. Ten min post injection, blood, the liver, and the kidneys were dissected. The tissues were rinsed with ice-cold saline, blotted dry, treated with 2 mL of 0.1 M NH4OAc/EtOH (35:65), and homogenized with an Ultra-Turrax T8 (IKA Labortechnik). The samples were then centrifuged for 10 min at 12,000 × g and 4°C. For HPLC measurements, an aliquot of the supernatants was prepared by precipitation of the proteins with ACN as described above for serum stability testing. The samples were analyzed by radio-HPLC (0–100% ACN in 5 min, 2 mL/min, Monolith column, Merck). The fractions were collected every 10 s over the whole course of the chromatographic run. Subsequently, the activity of the samples was measured in a gamma-counter to reconstruct a chromatogram.
# T1 sequence (Q04609 whole entry): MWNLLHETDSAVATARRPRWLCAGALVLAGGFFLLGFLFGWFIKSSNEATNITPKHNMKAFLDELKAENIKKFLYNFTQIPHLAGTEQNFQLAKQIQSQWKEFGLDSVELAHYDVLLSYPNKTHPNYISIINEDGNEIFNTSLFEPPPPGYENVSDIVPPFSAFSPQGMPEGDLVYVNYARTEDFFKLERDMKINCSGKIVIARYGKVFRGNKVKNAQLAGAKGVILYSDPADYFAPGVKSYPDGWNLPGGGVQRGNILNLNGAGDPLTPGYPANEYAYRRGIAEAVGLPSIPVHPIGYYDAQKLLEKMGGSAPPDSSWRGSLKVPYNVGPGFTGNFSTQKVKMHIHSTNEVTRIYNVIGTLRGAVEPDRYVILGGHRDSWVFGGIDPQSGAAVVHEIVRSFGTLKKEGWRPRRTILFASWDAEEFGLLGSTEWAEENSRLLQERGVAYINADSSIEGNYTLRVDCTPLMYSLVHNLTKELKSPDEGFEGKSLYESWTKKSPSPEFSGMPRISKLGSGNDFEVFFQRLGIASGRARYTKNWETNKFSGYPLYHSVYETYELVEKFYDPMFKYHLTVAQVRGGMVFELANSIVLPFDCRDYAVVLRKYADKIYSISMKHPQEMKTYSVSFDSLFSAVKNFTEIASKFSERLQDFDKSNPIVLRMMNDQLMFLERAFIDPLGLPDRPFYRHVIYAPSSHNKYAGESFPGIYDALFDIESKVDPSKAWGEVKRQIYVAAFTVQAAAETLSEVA
Structure (SMILES),Ki [2],Specific cell surface [3],Specific lysate (internalization) [3],release of ^177Lu in human serum ([4]; 37°C),other results
O=C([O-])CN1CCN(CC(=O)[O-])CCN(Cc2ccc(C(=O)NCCCCC(NC(=O)NC(CCC(=O)O)C(=O)O)C(=O)O)cc2)CCN(CC(=O)[O-])CC1.[68Ga+3] (stereo not drawn) [^68Ga-CA027],–,–,–,–,plasma half-life t1/2 [1]: 2.7 min
O=C(O)CCC(NC(=O)NC(CCCCNC(=O)C(Cc1ccc2ccccc2c1)NC(=O)C1CCC(CNC(=O)c2ccc(CN3CCN(CC(=O)O)CCN(CC(=O)O)CCN(CC(=O)O)CC3)cc2)CC1)C(=O)O)C(=O)O (stereo not drawn) [CA028],15.2 ± 6.11 nM,94.12 ± 2.70 %IA/10^6cells,41.22 ± 2.72 %IA/10^6 cells,–,–
"O=C([O-])CN1CCN(CC(=O)[O-])CCN(CC(=O)NCC2CCC(C(=O)N[C@@H](Cc3ccc4ccccc4c3)C(=O)NCCCC[C@H](NC(=O)N[C@@H](CCC(=O)O)C(=O)O)C(=O)O)CC2)CCN(CC(=O)[O-])CC1.[177Lu+3] (stereo partly drawn) [^177Lu-PSMA-617, reference compound]",–,–,–,no release,metabolization in vivo (radio-HPLC of extracts) [5]: activity elutes at the retention time of the intact tracer
O=C([O-])CN1CCN(CC(=O)[O-])CCN(Cc2ccc(C(=O)NCC3CCC(C(=O)NC(Cc4ccc5ccccc5c4)C(=O)NCCCCC(NC(=O)NC(CCC(=O)O)C(=O)O)C(=O)O)CC3)cc2)CCN(CC(=O)[O-])CC1.[177Lu+3] (stereo not drawn) [^177Lu-CA028],–,–,–,–,"free activity in human serum ([4]; 37°C, 'at this time point'): 40%; metabolization in vivo (radio-HPLC of extracts) [5]: activity elutes at the retention time of the intact tracer"
O=C(O)CCC(NC(=O)NC(CCCCNC(=O)C(Cc1ccc2ccccc2c1)NC(=O)C1CCC(CNC(=S)Nc2ccc(CNC(=O)CCC(C(=O)O)N3CCN(CC(=O)O)CCN(CC(=O)O)CCN(CC(=O)O)CC3)cc2)CC1)C(=O)O)C(=O)O (stereo not drawn) [CA029],11 ± 4.87 nM,46.83 ± 3.07 %IA/10^6cells,44.26 ± 3.96 %IA/10^6 cells,–,–
O=C(O)CCC(NC(=O)NC(CCCCNC(=O)C(Cc1ccc2ccccc2c1)NC(=O)C1CCC(CNC(=S)Nc2ccc(CC3CN(CC(=O)O)CCN(CC(=O)O)CCN(CC(=O)O)CCN3CC(=O)O)cc2)CC1)C(=O)O)C(=O)O (stereo not drawn) [CA030],4.79 ± 1.31 nM,43.46 ± 1.50 %IA/10^6cells,53.78 ± 5.45 %IA/10^6 cells,–,specific internalization in C4-2 cells ([3]; Table 2): 53.78 % ID/10^6 cells
O=C([O-])CN1CCN(CC(=O)[O-])CCN(CC(=O)O)C(Cc2ccc(NC(=S)NCC3CCC(C(=O)NC(Cc4ccc5ccccc5c4)C(=O)NCCCCC(NC(=O)NC(CCC(=O)O)C(=O)O)C(=O)O)CC3)cc2)CN(CC(=O)[O-])CC1.[177Lu+3] (stereo not drawn) [^177Lu-CA030],–,–,–,no release,stability in human serum ([4]; over 72 h): stable
O=C([O-])CN1CCN(CC(=O)[O-])CCN(C(CCC(=O)NCc2ccc(NC(=S)NCC3CCC(C(=O)NC(Cc4ccc5ccccc5c4)C(=O)NCCCCC(NC(=O)NC(CCC(=O)O)C(=O)O)C(=O)O)CC3)cc2)C(=O)O)CCN(CC(=O)[O-])CC1.[177Lu+3] (stereo not drawn) [^177Lu-CA029],–,–,–,no release,–
O=C(O)CCC(NC(=O)NC(CCCCNC(=O)c1ccc(CN2CCN(CC(=O)O)CCN(CC(=O)O)CCN(CC(=O)O)CC2)cc1)C(=O)O)C(=O)O (stereo not drawn) [CA027],33.8 ± 2.13 nM,2.18 ± 0.50 %IA/10^6cells,1.70 ± 0.24 %IA/10^6 cells,–,–
